Test results reported in US12637427B2, “ALDH-2 inhibitor compounds and methods of use” (Amygdala Neurosciences, Inc., priority 2022, dated 2026).

Columns and labels:
[1] = target: T1, recombinant human ALDH-1 (Homo sapiens, UniProt P00352); assay: ALDH-1 inhibition assay; assay type: biochemical; settings: 60 min pre-incubation; 10 μM = highest concentration tested; read-out: Enzymatic Assays IC50 ALDH-1
T1 sequence (P00352 1-501): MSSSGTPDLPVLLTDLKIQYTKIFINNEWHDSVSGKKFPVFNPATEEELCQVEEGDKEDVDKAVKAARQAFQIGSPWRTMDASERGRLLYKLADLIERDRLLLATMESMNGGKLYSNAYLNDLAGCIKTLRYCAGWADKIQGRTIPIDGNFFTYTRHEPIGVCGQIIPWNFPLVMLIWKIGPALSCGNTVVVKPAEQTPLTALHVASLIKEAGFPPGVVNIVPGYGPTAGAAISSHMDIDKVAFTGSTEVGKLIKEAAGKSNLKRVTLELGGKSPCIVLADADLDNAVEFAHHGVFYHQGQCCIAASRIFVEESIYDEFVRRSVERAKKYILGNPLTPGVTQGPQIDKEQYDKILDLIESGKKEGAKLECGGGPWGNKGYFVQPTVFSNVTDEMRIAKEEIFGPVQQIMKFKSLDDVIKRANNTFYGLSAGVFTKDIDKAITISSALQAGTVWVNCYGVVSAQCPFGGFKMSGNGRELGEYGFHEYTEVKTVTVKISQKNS
Description: B. ALDH-1 inhibition assay: The ALDH-1 reaction mixture used in the assay contained 100 μM formaldehyde, 2.5 mM NAD+, 20 mM NaCl, 10 mM MgCl2, 1 mM dithiothreitol (DTT; reducing agent), and 50 nM recombinant human ALDH-1 in 50 mM Hepes buffer, pH 7.5 in a final volume of 10 μL using 384-well Corning 3820 plates. After 60 min of pre-incubation of the test ALDH-2 inhibitor compound with ALDH-1, the reaction was started by adding NAD+ and formaldehyde and the assay reaction mixture was allowed to proceed for 60 minutes. Activity of the ALDH-1 enzyme was determined by monitoring NADH formation using Perkin-Elmer Envision Reader with excitation and emission wavelengths set at 340 and 460 nm, respectively.

[2] = target: T2, recombinant human ALDH-3 (Homo sapiens, UniProt P30838); assay: ALDH-3 inhibition assay; assay type: biochemical; settings: 60 min pre-incubation; 10 μM = highest concentration tested; read-out: Enzymatic Assays IC50 ALDH-3
T2 sequence (P30838 1-453): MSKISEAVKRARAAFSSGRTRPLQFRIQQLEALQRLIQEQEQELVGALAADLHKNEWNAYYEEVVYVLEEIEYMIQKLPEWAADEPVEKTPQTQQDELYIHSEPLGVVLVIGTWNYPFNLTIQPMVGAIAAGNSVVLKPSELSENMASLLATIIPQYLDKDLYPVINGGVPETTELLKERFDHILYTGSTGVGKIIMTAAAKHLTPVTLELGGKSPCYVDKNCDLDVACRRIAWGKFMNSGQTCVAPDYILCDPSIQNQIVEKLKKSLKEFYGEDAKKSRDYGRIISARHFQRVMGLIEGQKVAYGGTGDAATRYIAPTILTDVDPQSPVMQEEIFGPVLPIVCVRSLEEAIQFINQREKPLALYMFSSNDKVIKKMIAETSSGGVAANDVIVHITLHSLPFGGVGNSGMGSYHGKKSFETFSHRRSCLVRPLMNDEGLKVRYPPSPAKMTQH
Description: ALDH-3 inhibition assay: The ALDH-3 reaction mixture used in the assay contained 200 μM benzaldehyde, 2.5 mM NAD+, 20 mM NaCl, 10 mM MgCl2, and 10 nM recombinant human ALDH-3 in 50 mM Hepes buffer, pH 7.5 in a final volume of 10 μL using 384-well Corning 3820 plates. After 60 min of pre-incubation of the test ALDH-2 inhibitor compound with ALDH-3, the reaction was started by adding NAD+ and benzaldehyde and the assay reaction mixture was allowed to proceed for 60 minutes. Activity of the ALDH-3 enzyme was determined by monitoring NADH formation using Perkin-Elmer Envision Reader with excitation and emission wavelengths set at 340 and 460 nm, respectively.

| IC50 [1] [µM] | IC50 [2] [µM] | SMILES |
| --- | --- | --- |
| > 10 | > 10 | Cc1cccc(Cl)c1C(=O)NCc1ccc(-c2cccc(=O)[nH]2)nc1 [(1k), 2-Chloro-6-methyl-N-((6′-oxo-1′,6′-dihydro-[2,2′-bipyridin]-5-yl)methyl)benzamide] |
| > 10 | > 10 | Cc1nccc(Cl)c1C(=O)NCc1ccc(-c2cccc(=O)[nH]2)cc1 [(1c), 4-Chloro-2-methyl-N-(4-(6-oxo-1,6-dihydropyridin-2-yl)benzyl)nicotinamide] |
| > 10 | > 10 | Cc1cccc(Cl)c1C(=O)NCc1ccc(-c2cccc(=O)[nH]2)cc1 [(1a), 2-Chloro-6-methyl-N-(4-(6-oxo-1,6-dihydropyridin-2-yl)benzyl)benzamide] |

The remaining lines, values behind:

| SMILES | IC50 [1] [µM] | IC50 [2] [µM] |
| --- | --- | --- |
| O=C(NCc1ccc(-c2cccc(=O)[nH]2)cc1)c1ccccc1Cl [(1b), 2-Chloro-N-(4-(6-oxo-1,6-dihydropyridin-2-yl)benzyl)benzamide] | > 10 | > 10 |
| O=C(NCc1ccc(-c2cccc(=O)[nH]2)nc1)c1ccccc1Cl [(1l), 2-chloro-N-((6′-oxo-1′,6′-dihydro-[2,2′-bipyridin]-5-yl)methyl)benzamide] | > 10 | > 10 |
| Cc1nccc(Br)c1C(=O)NCc1ccc(-c2[nH]c(=O)ccc2F)cc1 [(1g), 4-Bromo-N-(4-(3-fluoro-6-oxo-1,6-dihydropyridin-2-yl)benzyl)-2-methylnicotinamide] | > 10 | > 10 |
